Measurements as given in PubChem BioAssay (NCI).
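Grown in 96-well plates, cells were treated for 48 hours with each compound at five concentrations. Insufficient inhibition: endpoint recorded as highest concentration tested. TGI is the concentration that stops growth completely.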

Experiments:
Test in all cases: NCI anticancer screen, dose series, 48 h
HOP-62 NSCLC = test system: HOP-62 NSCLC
PC-3 prostate = test system: PC-3 prostate
UACC-62 melanoma = test system: UACC-62 melanoma
SF-295 CNS = test system: SF-295 CNS
SK-MEL-5 melanoma = test system: SK-MEL-5 melanoma
TK-10 renal = test system: TK-10 renal
RPMI-8226 leukemia = test system: RPMI-8226 leukemia
CAKI-1 renal = test system: CAKI-1 renal
HL-60(TB) leukemia = test system: HL-60(TB) leukemia
CCRF-CEM leukemia = test system: CCRF-CEM leukemia

| SMILES | TGI (HOP-62 NSCLC) [µM] | TGI (PC-3 prostate) [µM] | TGI (UACC-62 melanoma) [µM] | TGI (SF-295 CNS) [µM] | TGI (SK-MEL-5 melanoma) [µM] | TGI (TK-10 renal) [µM] | TGI (RPMI-8226 leukemia) [µM] | TGI (CAKI-1 renal) [µM] | TGI (HL-60(TB) leukemia) [µM] | TGI (CCRF-CEM leukemia) [µM] |
| --- | --- | --- | --- | --- | --- | --- | --- | --- | --- | --- |
| Nc1ncnc2c1nnn2C1CCC(CP(=O)(O)O)C1 (stereo not given) | > 100 | > 100 | > 100 | > 100 | > 100 | > 100 | > 100 | > 100 | > 100 | > 100 |
| N#Cc1ccccc1-c1nc2c3c(c(N)ccc3n1)C(=O)c1ccccc1-2 | > 100 | > 100 | > 100 | > 100 | 74.5 | > 100 | > 100 | 43.6 | > 100 | > 100 |
| CSc1n[nH]c(N)c1C(=O)Nc1ccc(C)cc1 | > 100 | > 100 | > 100 | > 100 | > 100 | > 100 | > 100 | > 100 | > 100 | > 100 |
| CCNC(=O)c1cc(/C=C/c2ccc([N+](=O)[O-])o2)nc2ccccc12 | > 100 | > 100 | > 100 | > 100 | 4.1 | > 91.9 | > 100 | > 100 | > 100 | > 100 |
| COc1ccc(-n2c(=O)n(C)c(=O)n2-c2ccc(OC)cc2)cc1 | > 100 | > 100 | > 100 | > 100 | > 100 | > 100 | > 100 | > 100 | > 100 | > 100 |
| Cc1c2c(n(CCc3ccc(Cl)cc3)c1C)NC(c1ccccc1)C(C#N)S2(=O)=O (stereo not given) | > 100 | > 100 | > 100 | > 100 | 14.3 | > 100 | 57.8 | > 100 | > 100 | 5.07 |
| CC(=O)Nc1ccc(OC2=CCN(C)CC2)cc1 | > 100 | > 100 | > 100 | > 100 | > 100 | > 100 | > 100 | > 100 | > 100 | > 100 |
| O=C(Nc1ccccc1)N(CCCCN(Cc1ccccc1)C(=O)Nc1ccccc1)Cc1ccccc1 | > 100 | > 100 | > 100 | > 100 | > 100 | > 100 | > 100 | > 100 | > 100 | > 100 |
| CC(=O)Oc1c2oc3ccc(Cl)cc3c(=O)c2c(O)c2ccsc12 | > 100 | > 100 | > 100 | > 100 | > 100 | > 100 | > 100 | > 100 | > 100 | > 100 |
| O=c1ccn(CC2(CO)CC(Cc3ccccc3)C2)c(=O)[nH]1 (stereo not given) | > 100 | > 100 | > 100 | > 100 | > 100 | > 100 | > 100 | > 100 | > 100 | > 100 |
| O=C(OCCN=c1c2ccccc2ccc2ccccc12)c1ccc([N+](=O)[O-])cc1 | > 100 | > 100 | > 100 | > 100 | > 100 | > 100 | > 100 | > 100 | > 100 | > 100 |
| O=C(O)c1ccn(-c2cccc(-n3ccc(C(=O)O)n3)n2)n1 | > 100 | > 100 | > 100 | > 100 | > 100 | > 100 | > 100 | > 100 | > 100 | > 100 |
| S=C1SCN(Cc2ccco2)CN1c1ccc(Br)cc1 | 51.9 | 37 | 15.2 | 28.7 | 24.5 | 65.9 | 35.3 | 42.7 | 45.8 | 67.4 |
| CC1(O)CC(=O)c2c(cc3ccc(-c4c5c(c(O)c6c(O)cccc46)C(=O)CC(C)(O)C5)c(O)c3c2O)C1 (stereo not given) | 1.55 | 11.2 | > 100 | 0.874 | 0.495 | 10.3 | 2.8 | 2.92 | 0.772 | 10.5 |
| Cc1ccc2c(c1C)C(=O)/C(=C/c1ccccc1C(=O)O)C2 | > 100 | > 100 | > 100 | > 100 | > 100 | > 100 | > 100 | > 100 | > 100 | > 100 |
| C=C(CO[Si](C)(C)C(C)(C)C)C(C)=O | > 100 | 98.5 | 30.5 | > 100 | 28.4 | > 100 | > 77.8 | 46.9 | > 100 | 9.01 |
| Oc1c([Si](c2ccccc2)(c2ccccc2)c2ccccc2)cc2ccccc2c1-c1c(O)c([Si](c2ccccc2)(c2ccccc2)c2ccccc2)cc2ccccc12 | > 100 | > 100 | > 100 | > 100 | > 100 | > 100 | > 100 | > 100 | > 100 | > 100 |
| CC(C)(Oc1ccc(Cl)cc1)C(=O)N(C(=O)N1CCC(c2ccccc2)CC1)c1ccccc1 | > 100 | > 100 | > 100 | > 100 | 65.8 | > 100 | > 46.3 | > 100 | 29 | > 100 |
